Reference: patent US20230393140A1, “BINDING ASSAYS INVOLVING A PLURALITY OF SYNTHETIC COMPOUNDS, TARGETS, AND COUNTER TARGETS” (SRI International, priority 2020, published 2023)
Where two headings read alike, the source gives them in different places. Numbered stars: 1 amine (or outer) side, 2 acyl side, 3 side chain; on linkers, the order of the positions; unused ones are H or OH. Square brackets hold non-standard residues; d marks the D form. Peptide text beside a SMILES is read from it. * marks the point of attachment. 5FAM = O=C1OC2(c3ccc(O)cc3Oc3cc(O)ccc32)c2ccc(C(=O)*)cc21; NHCH2C6H4(4-CH2CONH2) = NC(=O)Cc1ccc(CN*)cc1; X1 = O=C(Cc1ccc(CN[*:1])cc1)[*:2]

Legend:
K-Ras = molecular target: T1, K-Ras (Homo sapiens, UniProt P01116, G12V); experiment: MST binding affinity of resynthesized NNP hits to K-Ras; settings: read-out: KD (nM) [95% conf. int]; MST; NNP1 library hit; target K-Ras; one-site binding model
T1 construct: purchased Cytoskeleton Inc. CS-RS04
Description: Loading was performed according to the following protocol: The 200 μM stock solution of the target protein was diluted to 10 μM in 20 mM HEPES pH 8.0, 150 mM NaCl, 10 mM MgCl2, 1 mM TCEP, 0.05% Tween-20 (total volume 110 μL). 10 μL were set aside for later labeling quality control. EDTA pH 8.0 (stock concentration 10 mM) was added to the protein solution to a final concentration of 80 μM. GTP (stock concentration 50 mM) was added to the protein solution to a final concentration of 750 μM. The solution was incubated at 30° C. for 2 hours (PCR tube) and then placed on ice for 2 minutes. MgCl2 was added to the protein solution to a final concentration of 100 mM. The resulting protein solution was buffer exchanged into the buffer required in the labeling kit for labeling. […] All the other target molecules (TNFα, IL-6, IL-6R and ASGPR) were used as received without any additional treatment.
Hit binding affinity to various targets were determined using Microscale Thermophoresis (MST). MST experiments were performed on a Monolith NT.115pico (NanoTemper Technologies GmbH, Munich, Germany). Measurements were performed at room temperature, in triplicate with incubation periods of 15, 30 and 45 minutes. […] Targets were labeled using Nanotemper Monolith 2nd Generation Protein Labeling Kits. RED-MALEIMIDE (Maleimide-647-dye) labeling kit was used for K-Ras and RED-NHS (NHS-647-dye) labeling kit was used for IL-6, IL-6R, TNFα and ASGPR. The buffer for the ASGPR contained 20 mM HEPES pH 7.4, 150 mM NaCl, 10 mM MgCl2, 2 mM CaCl2, 0.05% Pluronic F-127, and 1 mM DTT; for IL-6 contained 20 mM HEPES pH 7.4, 150 mM KCl, 10 mM MgCl2, and 0.1% Pluronic F-127; for the soluble IL-6 receptor 20 mM HEPES pH 7.4, 150 mM NaCl, 10 mM MgCl2, and 0.05% Tween-20; for K-Ras 20 mM HEPES pH 7.4, 150 mM NaCl, 10 mM MgCl2, 0.05% Tween-20 and 1 mM DTT; for TNFα 10 mM HEPES pH 7.4, 150 mM NaCl, 10 mM MgCl2, 0.05% Polysorbate-20. Triplicate data was analyzed using MO.AffinityAnalysis software (NanoTemper Technologies GmbH).

cRaf/K-Ras (G12V) PPI = molecular target: T2, cRaf/K-Ras (G12V) PPI (Homo sapiens, UniProt P01116, G12V); experiment: K-Ras-cRaf HTRF-based PPI profiling; assay type: biochemical; settings: for blank corrected HTRF: raw data; for % Binding: relative to DMSO controls;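 for blank corrected HTRF: background is the signal of wells with all components except cRaf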
T2 construct: b-Kras G12V (GppNHp) (aa 2-169); biotin (b-
Description: In some experimental embodiments, a buffer was added to the assay wells which included […] HEPES pH 7.4, 150 mM NaCl, 5 mM MgCl2, 1 mM DTT, 0.005% NP40, and 1% DMSO. 5 uL of 3×K-Ras protein was then added to the assay wells, followed by the synthetic compounds which were added using acoustic technology (ECHO, Labcyte) followed by thirty minutes incubation at room temperature. Afterwards, 5 uL of 3×cRaf protein was added to the assay wells and 5 uL of detection mix was then added to the assay wells after 30 minutes. The detection mix included Mab anti-GST-Tb cryptate (Cisbio 61GSTTLB) and streptavidin-XL665 (Ex/Em=(337/665; 620) in PHERAstar (BMG Labtech)). HTRF signal was measured […] later.
The data includes raw data (signal-background without cRaf protein but with all other component), % binding (relative to DMSO controls), and curve fits. Curve fits were performed when the activities at the highest concentration of the synthetic compounds were less than 65%. Tables 18A-18B below includes the raw data (e.g., blank corrected HTRF) and Tables 19A-19B includes the % binding.

Compound: CC(C)C[C@H](NC(=O)[C@@H](CCCNC(=N)N)NC(=O)[C@@H](CCCCN)NC(=O)[C@@H](CCC(=O)O)NC(=O)[C@@H](Cc1ccccc1)NC(=O)Cc1ccc(CNC(=O)[C@@H](NC(=O)[C@@H](Cc2ccc(O)cc2)NC(=O)[C@@H](Cc2c[nH]cn2)NC(=O)[C@H]2CCCN2C(=O)[C@@H](Cc2c[nH]c3ccccc23)NC(=O)c2ccc3c(c2)C(=O)OC32c3ccc(O)cc3Oc3cc(O)ccc32)C(C)C)cc1)C(=O)NCc1ccc(CC(=O)N2CCC[C@@H]2C(=O)N[C@H](CO)C(=O)N[C@H](CCC(=O)O)C(=O)N[C@H](CCCNC(=N)N)C(=O)NCC(=O)NCc2ccc(CC(=O)N3CCC[C@@H]3C(=O)N[C@H](CCCCN)C(=O)N[C@H](Cc3ccc(O)cc3)C(=O)N[C@H](CCCNC(=N)N)C(=O)N[C@@H](Cc3ccccc3)C(=O)NCc3ccc(CC(=O)N4CCC[C@@H]4C(=O)NCC(=O)N[C@H](CCCNC(=N)N)C(=O)N[C@H](Cc4c[nH]c5ccccc45)C(=O)NCC(=O)NCc4ccc(CC(=O)N[C@H](Cc5c[nH]cn5)C(=O)N[C@H](Cc5ccc(O)cc5)C(=O)N[C@H](CO)C(=O)N[C@H](CCC(=O)O)C(=O)N[C@@H](Cc5ccccc5)C(=O)NCc5ccc(CC(N)=O)cc5)cc4)cc3)cc2)cc1 [KRAS-1-15] (5FAM-[dW][dP][dH][dY]V[X1][dF][dE][dK][dR]L[X1][dP][dS][dE][dR]G[X1][dP][dK][dY][dR]F[X1][dP]G[dR][dW]G[X1][dH][dY][dS][dE]F-{NHCH2C6H4(4-CH2CONH2)})
- Kd (K-Ras): 180 nM

Compound: CC(C)[C@H](NC(=O)[C@@H](Cc1ccc(O)cc1)NC(=O)[C@@H](Cc1c[nH]cn1)NC(=O)[C@H]1CCCN1C(=O)[C@@H](Cc1c[nH]c2ccccc12)NC(=O)c1ccc2c(c1)C(=O)OC21c2ccc(O)cc2Oc2cc(O)ccc21)C(=O)NCc1ccc(CC(=O)N2CCC[C@@H]2C(=O)N[C@H](CO)C(=O)NCC(=O)N[C@H](CO)C(=O)N[C@@H](C)C(=O)NCc2ccc(CC(=O)N3CCC[C@@H]3C(=O)N[C@H](CO)C(=O)N[C@H](CCC(=O)O)C(=O)N[C@H](CCCNC(=N)N)C(=O)NCC(=O)NCc3ccc(CC(=O)N4CCC[C@@H]4C(=O)N[C@H](CCCCN)C(=O)N[C@H](Cc4ccc(O)cc4)C(=O)N[C@H](CCCNC(=N)N)C(=O)N[C@@H](Cc4ccccc4)C(=O)NCc4ccc(CC(=O)N5CCC[C@@H]5C(=O)NCC(=O)N[C@H](CCCNC(=N)N)C(=O)N[C@H](Cc5c[nH]c6ccccc56)C(=O)NCC(=O)NCc5ccc(CC(=O)N[C@H](Cc6ccc(O)cc6)C(=O)N6CCC[C@@H]6C(=O)N[C@H](CCCNC(=N)N)C(=O)N[C@H](CCC(=O)O)C(=O)NCC(=O)NCc6ccc(CC(N)=O)cc6)cc5)cc4)cc3)cc2)cc1 [KRAS-1-5] (5FAM-[dW][dP][dH][dY]V[X1][dP][dS]G[dS]A[X1][dP][dS][dE][dR]G[X1][dP][dK][dY][dR]F[X1][dP]G[dR][dW]G[X1][dY][dP][dR][dE]G-{NHCH2C6H4(4-CH2CONH2)})
- Kd (K-Ras): 75 nM

Compound: CC(C)C[C@H](NC(=O)[C@@H](CCC(=O)O)NC(=O)[C@H](NC(=O)[C@H]1CCCN1C(=O)[C@@H](CCC(=O)O)NC(=O)c1ccc2c(c1)C(=O)OC21c2ccc(O)cc2Oc2cc(O)ccc21)[C@H](C)O)C(=O)NCc1ccc(CC(=O)NCC(=O)N[C@@H](C(=O)N2CCC[C@@H]2C(=O)N[C@H](CCCNC(=N)N)C(=O)N[C@@H](C)C(=O)NCc2ccc(CC(=O)N3CCC[C@@H]3C(=O)N[C@H](CO)C(=O)N[C@H](CCC(=O)O)C(=O)N[C@H](CCCNC(=N)N)C(=O)NCC(=O)NCc3ccc(CC(=O)N4CCC[C@@H]4C(=O)N[C@H](CCCCN)C(=O)N[C@H](Cc4ccc(O)cc4)C(=O)N[C@H](CCCNC(=N)N)C(=O)N[C@@H](Cc4ccccc4)C(=O)NCc4ccc(CC(=O)N[C@H](CCCNC(=N)N)C(=O)N[C@H](Cc5ccc(O)cc5)C(=O)N[C@@H](C(=O)N[C@H](CCC(=O)O)C(=O)N[C@@H](C)C(=O)NCc5ccc(CC(=O)NCC(=O)N[C@H](Cc6c[nH]c7ccccc67)C(=O)N[C@H](Cc6c[nH]cn6)C(=O)N[C@H](CCCNC(=N)N)C(=O)N[C@@H](C)C(=O)NCc6ccc(CC(N)=O)cc6)cc5)[C@H](C)O)cc4)cc3)cc2)C(C)C)cc1 [KRAS-1-10] (5FAM-[dE][dP][dT][dE]L[X1]G[dV][dP][dR]A[X1][dP][dS][dE][dR]G[X1][dP][dK][dY][dR]F[X1][dR][dY][dT][dE]A[X1]G[dW][dH][dR]A-{NHCH2C6H4(4-CH2CONH2)})
- Kd (K-Ras): 60 nM

Compound: CC(C)[C@H](NC(=O)[C@@H](Cc1c[nH]c2ccccc12)NC(=O)[C@H]1CCCN1C(=O)[C@@H](Cc1c[nH]cn1)NC(=O)[C@@H](Cc1ccc(O)cc1)NC(=O)c1ccc2c(c1)C(=O)OC21c2ccc(O)cc2Oc2cc(O)ccc21)C(=O)NCc1ccc(CC(=O)NCC(=O)N[C@H](CCCCN)C(=O)N[C@H](Cc2c[nH]cn2)C(=O)N[C@H](CC(N)=O)C(=O)N[C@@H](Cc2ccccc2)C(=O)NCc2ccc(CC(=O)N3CCC[C@@H]3C(=O)N[C@H](CO)C(=O)N[C@H](CCC(=O)O)C(=O)N[C@H](CCCNC(=N)N)C(=O)NCC(=O)NCc3ccc(CC(=O)N4CCC[C@@H]4C(=O)N[C@H](CCCCN)C(=O)N[C@H](Cc4ccc(O)cc4)C(=O)N[C@H](CCCNC(=N)N)C(=O)N[C@@H](Cc4ccccc4)C(=O)NCc4ccc(CC(=O)N5CCC[C@@H]5C(=O)NCC(=O)N[C@H](CCCNC(=N)N)C(=O)N[C@H](Cc5c[nH]c6ccccc56)C(=O)NCC(=O)NCc5ccc(CC(=O)N[C@H](Cc6ccc(O)cc6)C(=O)N6CCC[C@@H]6C(=O)N[C@H](CCCNC(=N)N)C(=O)N[C@H](CCC(=O)O)C(=O)NCC(=O)NCc6ccc(CC(N)=O)cc6)cc5)cc4)cc3)cc2)cc1 [KRAS-1-11] (5FAM-[dY][dH][dP][dW]V[X1]G[dK][dH][dN]F[X1][dP][dS][dE][dR]G[X1][dP][dK][dY][dR]F[X1][dP]G[dR][dW]G[X1][dY][dP][dR][dE]G-{NHCH2C6H4(4-CH2CONH2)})
- Kd (K-Ras): 60 nM

Compound: Cn1cnc(Cn2ccc3ccc(CNCc4[nH]c5ccccc5c4[C@H]4NC(=O)c5ccc(O)cc54)cc32)c1 [BI-2852, reference compound]
- IC50 (cRaf/K-Ras (G12V) PPI; 1% DMSO in reaction, compounds without fluorescein, 30 nM K-Ras G12V, 10 nM GST-cRaf, 30 min pre-incubation, read-out: K-Ras G12V Compound IC50): 1.6 µM
- IC50 (cRaf/K-Ras (G12V) PPI; 10-concentration IC50 mode, 3-fold serial dilution, K-Ras G12V 30 nM, GST-cRaf 10 nM, read-out: IC50): 1.6 µM
- HillSlope (cRaf/K-Ras (G12V) PPI; curve fit of % binding, K-Ras G12V 30 nM, GST-cRaf 10 nM): −0.5508
- blank corrected HTRF (cRaf/K-Ras (G12V) PPI; conc. 1.67E−05): 2409
- blank corrected HTRF (cRaf/K-Ras (G12V) PPI; conc. 1.85E−06): 6562
- blank corrected HTRF (cRaf/K-Ras (G12V) PPI; conc. 2.06E−07): 10050
- blank corrected HTRF (cRaf/K-Ras (G12V) PPI; conc. 2.29E−08): 12784
- blank corrected HTRF (cRaf/K-Ras (G12V) PPI; conc. 2.54E−09): 13013
- blank corrected HTRF (cRaf/K-Ras (G12V) PPI; conc. 5.00E−05): 2344
- blank corrected HTRF (cRaf/K-Ras (G12V) PPI; conc. 5.56E−06): 4849
- blank corrected HTRF (cRaf/K-Ras (G12V) PPI; conc. 6.17E−07): 8628
- blank corrected HTRF (cRaf/K-Ras (G12V) PPI; conc. 6.86E−08): 11886
- blank corrected HTRF (cRaf/K-Ras (G12V) PPI; conc. 7.62E−09): 13422
- % Binding (cRaf/K-Ras (G12V) PPI; conc. 1.67E−05): 17.36%
- % Binding (cRaf/K-Ras (G12V) PPI; conc. 1.85E−06): 47.29%
- % Binding (cRaf/K-Ras (G12V) PPI; conc. 2.06E−07): 72.42%
- % Binding (cRaf/K-Ras (G12V) PPI; conc. 2.29E−08): 92.13%
- % Binding (cRaf/K-Ras (G12V) PPI; conc. 2.54E−09): 93.78%
- % Binding (cRaf/K-Ras (G12V) PPI; conc. 5.00E−05): 16.9%
- % Binding (cRaf/K-Ras (G12V) PPI; conc. 5.56E−06): 34.94%
- % Binding (cRaf/K-Ras (G12V) PPI; conc. 6.17E−07): 62.18%
- % Binding (cRaf/K-Ras (G12V) PPI; conc. 6.86E−08): 85.66%
- % Binding (cRaf/K-Ras (G12V) PPI; conc. 7.62E−09): 96.73%
